Source: patent US7247644B2, “Ester derivatives of a decahydroisoquinoline-3-carboxylic acid as analgestics” (Eli Lilly and Company, priority 2003, dated 2007)

Key:
Type in all cases: in vivo
[1] = Bioavailability in Cynomolgus Monkeys: plasma concentrations of parent acid by LC/MS/MS; conditions: both sexes, cynomolgus monkey, iv, 0.3 mg/kg, Compound A in plasma, .3 mg/kg
Procedure: (§1) Percent bioavailability is determined using the following equation:
(§2) [formula] wherein AUC represents the area under the curve, p.o. represents oral dose, and i.v. represents intravenous dose. Bioavailability in Dogs:
Two male and two female monkeys are administered an oral, and later, an iv dose of (3S,4aR,6R,8aR)-6-[2-(1(2)H-tetrazole-5-yl)ethyl-1,2,3,4,4a,5,6,7,8,8a-decahydroisoquinoline-3-carboxylic acid (oral: 3 mg/kg; iv: 0.3 mg/kg) to determine oral bioavailability. The same animals are also subsequently administered an oral 3 mg/kg dose of (3S,4aR,6R,8aR)-6-[2-(1(2)H-tetrazole-5-yl)ethyl-1,2,3,4,4a,5,6,7,8,8a-decahydroisoquinoline-3-carboxylic acid ethyl ester to determine if the ester prodrug form increases bioavailability of the parent acid. The plasma concentrations of the parent acid are determined by LC/MS/MS.
Four cynomolgus monkeys (2/sex) are given a single oral dose of (3S,4aR,6R,8aR)-6-[2-(1(2)H-tetrazole-5-yl)ethyl-1,2,3,4,4a,5,6,7,8,8a-decahydroisoquinoline-3-carboxylic acid (3 mg/kg) on day 0, a single iv dose of (3S,4aR,6R,8aR)-6-[2-(1(2)H-tetrazole-5-yl)ethyl-1,2,3,4,4a,5,6,7,8,8a-decahydroisoquinoline-3-carboxylic acid (0.3 mg/kg) on day 4 and a single oral dose of (3S,4aR,6R,8aR)-6-[2-(1(2)H-tetrazole-5-yl)ethyl-1,2,3,4,4a,5,6,7,8,8a-decahydroisoquinoline-3-carboxylic acid ethyl ester (3 mg/kg) on day 8. […]

[2] = Bioavailability in Rats: plasma concentrations of parent acid by LC/MS/MS; conditions: male, rat, iv; Compound A in plasma, Fischer rats, 10 mg/kg
Procedure: as §1, §2
Male Fischer Rats are administered either an oral or iv dose of (3S,[…])-6-[2-(1(2)H-tetrazole-5-yl)ethyl-1,2,3,4,4a,5,6,7,8,8a-decahydroisoquinoline-3-carboxylic acid (10 mg/Kg) to determine oral bioavailability. A separate group of rats are administered an oral 10 mg/kg dose of an ester prodrug (for example (3S,4aR,6R,8aR)-6-[2-(1(2)H-tetrazole-5-yl)ethyl-1,2,3,4,4a,5,6,7,8,8a-decahydroisoquinoline-3-carboxylic acid ethyl ester, HCL salt) to determine whether the prodrug would increase bioavailability of the parent acid. The plasma concentrations of (3S,4aR,6R,8aR)-6-[2-(1(2)H-tetrazole-5-yl)ethyl-1,2,3,4,4a,5,6,7,8,8a-decahydroisoquinoline-3-carboxylic acid are determined by LC/MS/MS.

[3] = Bioavailability in Dogs: plasma concentrations of parent acid by LC/MS/MS; conditions: both sexes, dog, iv; Compound A in plasma, Beagle dogs, 1 mg/kg
Procedure: as §1, §2
Beagle dogs (2 male and 1 female) are administered an oral dose, and later an iv dose of (3S,4aR,6R,8aR)-6-[2-(1(2)H-tetrazole-5-yl)ethyl-1,2,3,4,4a,5,6,7,8,8a-decahydroisoquinoline-3-carboxylic acid (10 mg/Kg p.o; 1 mg/Kg i.v.) to determine oral bioavailability. Subsequently, the same three dogs are administered an oral 10 mg/kg dose of an ester prodrug (for example (3S,4aR,6R,8aR)-6-[2-(1(2)H-tetrazole-5-yl)ethyl-1,2,3,4,4a,5,6,7,8,8a-decahydroisoquinoline-3-carboxylic acid ethyl ester, HCL salt) to determine whether the prodrug would increase bioavailability of the parent acid. The plasma concentrations of (3S,4aR,6R,8aR)-6-[2-(1(2)H-tetrazole-5-yl)ethyl-1,2,3,4,4a,5,6,7,8,8a-decahydroisoquinoline-3-carboxylic acid are determined by LC/MS/MS.
Live Phase: (3S,4aR,6R,8aR)-6-[2-(1(2)H-tetrazole-5-yl)ethyl-1,2,3,4,4a,5,6,7,8,8a-decahydroisoquinoline-3-carboxylic acid (HCl salt) is dissolved in dilute sodium hydroxide for oral administration (30 mg/ml) and in 10% ethanol/water for iv administration (10 mg/ml). […]

## O=C(O)[C@@H]1C[C@H]2C[C@@H](CCc3nn[nH]n3)CC[C@H]2CN1 [Compound A]
[1]
  AUC: 1080 ng·h/mL
  Cmax: 1620 ng/mL
[2]
  AUC: 6730 ng·h/mL
  Cmax: 11000 ng/mL
[3]
  AUC: 4220 ng·h/mL
  Cmax: 2820 ng/mL
